Laboratory results published in US10597388B2, “Pyridazinone herbicides” (FMC CORPORATION, priority 2014, dated 2020).

How the values were obtained:
Type in all cases: in vivo
[1] = tested on: ragweed (common ragweed, Ambrosia elatior); test: Test A greenhouse herbicide test, pre- and postemergence
From the text: (§1) Seeds of plant species selected from barnyardgrass (Echinochloa crus-galli), kochia (Kochia scoparia), ragweed (common ragweed, Ambrosia elatior), ryegrass, Italian (Italian ryegrass, Lolium multiflorum), crabgrass, large (large crabgrass, Digitaria sanguinalis), foxtail, giant (giant foxtail, Setaria faberii), momingglory (Ipomoea spp.), pigweed (Amaranthus retroflexus), velvetleaf (Abutilon theophrasti), wheat (Triticum aestivum), and corn (Zea mays) were planted into a blend of loam soil and sand and treated preemergence with a directed soil spray using test chemicals formulated in a non-phytotoxic solvent mixture which included a surfactant.
(§2) At the same time, plants selected from these crop and weed species and also blackgrass (Alopecurus myosuroides), and galium (catchweed bedstraw, Galium aparine) were planted in pots containing the same blend of loam soil and sand and treated with postemergence applications of test chemicals formulated in the same manner. Plants ranged in height from 2 to 10 cm and were in the one- to two-leaf stage for the postemergence treatment. Treated plants and untreated controls were maintained in a greenhouse for approximately 10 d, after which time all treated plants were compared to untreated controls and visually evaluated for injury. Plant response ratings, summarized in Table A, are based on a 0 to 100 scale where 0 is no effect and 100 is complete control. A dash (-) response means no test result.

[2] = tested on: foxtail, giant (giant foxtail, Setaria faberii); test: as above
From the text: as §1, §2

[3] = tested on: kochia (Kochia scoparia); test: as above
From the text: as §1, §2

[4] = tested on: ryegrass, Italian (Italian ryegrass, Lolium multiflorum); test: as above
From the text: as §1, §2

[5] = tested on: corn (Zea mays); test: as above; settings: Postemergence; for Corn plant response rating: 0 to 100 scale, 0 is no effect, 100 is complete control
From the text: as §1, §2

[6] = tested on: wheat (Triticum aestivum); test: as above; settings: Postemergence; for Wheat plant response rating: 0 to 100 scale, 0 is no effect, 100 is complete control
From the text: as §1, §2

[7] = tested on: barnyardgrass (Echinochloa crus-galli); test: as above
From the text: as §1, §2

[8] = tested on: pigweed (Amaranthus retroflexus); test: as above
From the text: as §1, §2

[9] = tested on: galium (catchweed bedstraw, Galium aparine); test: Test A greenhouse herbicide test, postemergence; settings: for Galium plant response rating: 0 to 100 scale, 0 is no effect, 100 is complete control
From the text: as §2

[10] = tested on: blackgrass (Alopecurus myosuroides); test: Test A greenhouse herbicide test, postemergence; settings: for Blackgrass plant response rating: 0 to 100 scale, 0 is no effect, 100 is complete control
From the text: as §2

[11] = Postemergence, 125 g ai/ha, 0 to 100 scale where 0 is no effect and 100 is complete control
[12] = Postemergence, 500 g ai/ha, 0 to 100 scale, 0 is no effect, 100 is complete control
[13] = Preemergence, 125 g ai/ha, 0 to 100 scale where 0 is no effect and 100 is complete control
[14] = Preemergence, 500 g ai/ha, 0 to 100 scale, 0 no effect, 100 complete control
[15] = 125 g ai/ha, 0 to 100 scale where 0 is no effect and 100 is complete control
[16] = Postemergence, 1000 g ai/ha, 0 to 100 scale, 0 is no effect, 100 is complete control
[17] = Preemergence, 1000 g ai/ha, 0 to 100 scale, 0 no effect, 100 complete control
[18] = Preemergence, 500 g ai/ha, 0 to 100 scale where 0 is no effect and 100 is complete control
[19] = Postemergence, 500 g ai/ha, visual rating after approx. 10 d, 0 to 100 scale (0 no effect, 100 complete control)
[20] = 500 g ai/ha, visual rating after approx. 10 d, 0 to 100 scale (0 no effect, 100 complete control)

## CCc1ccc2ccccc2c1-c1c(OC(=O)OC(C)C)c(C)nn(C)c1=O [Compound 39]
[1]; [11]
  Plant response rating, Ragweed: 50
[1]; [12]
  Ragweed plant response rating: 90
[1]; [13]
  Ragweed plant response rating: 10
[1]; [14]
  Plant response rating, Ragweed: 70
[2]; [11]
  Plant response rating, Foxtail, Giant: 0
[2]; [12]
  Foxtail, Giant plant response rating: 60
[2]; [13]
  Foxtail, Giant plant response rating: 0
[2]; [14]
  Plant response rating, Foxtail, Giant: 60
[3]; [11]
  Plant response rating, Kochia: 30
[3]; [12]
  Kochia plant response rating: 30
[3]; [13]
  Kochia plant response rating: 0
[3]; [14]
  Plant response rating, Kochia: 0
[4]; [11]
  Plant response rating, Ryegrass, Italian: 90
[4]; [12]
  Ryegrass, Italian plant response rating: 60
[4]; [13]
  Ryegrass, Italian plant response rating: 40
[4]; [14]
  Plant response rating, Ryegrass, Italian: 50
[5]; [15]
  Plant response rating, Corn: 0
[5]; 500 g ai/ha
  Corn plant response rating: 0
[6]; [15]
  Plant response rating, Wheat: 0
[6]; 500 g ai/ha
  Wheat plant response rating: 10
[7]; [11]
  Plant response rating, Barnyardgrass: 0
[7]; [12]
  Barnyardgrass plant response rating: 10
[7]; [13]
  Barnyardgrass plant response rating: 0
[7]; [14]
  Plant response rating, Barnyardgrass: 10
[8]; [11]
  Plant response rating, Pigweed: 50
[8]; [12]
  Pigweed plant response rating: 80
[8]; [13]
  Pigweed plant response rating: 80
[8]; [14]
  Plant response rating, Pigweed: 80
[9]; [15]
  Plant response rating, Galium: 90
[9]; 500 g ai/ha
  Galium plant response rating: 100
[10]; [15]
  Plant response rating, Blackgrass: 30
[10]; 500 g ai/ha
  Blackgrass plant response rating: 70

## CC(=O)COc1c(C)nn(C)c(=O)c1-c1cccc2ccccc12 [Compound 178]
[1]; [16]
  Ragweed plant response rating: 60
[1]; [17]
  Plant response rating, Ragweed: 0
[2]; [16]
  Foxtail, Giant plant response rating: 0
[2]; [17]
  Plant response rating, Foxtail, Giant: 0
[3]; [16]
  Kochia plant response rating: 10
[3]; [17]
  Plant response rating, Kochia: 0
[4]; [16]
  Ryegrass, Italian plant response rating: 70
[4]; [17]
  Plant response rating, Ryegrass, Italian: 60
[5]; 1000 g ai/ha
  Corn plant response rating: 0
[6]; 1000 g ai/ha
  Wheat plant response rating: 0
[7]; [16]
  Barnyardgrass plant response rating: 0
[7]; [17]
  Plant response rating, Barnyardgrass: 0
[8]; [16]
  Pigweed plant response rating: 70
[8]; [17]
  Plant response rating, Pigweed: 0
[9]; 1000 g ai/ha
  Galium plant response rating: 70
[10]; 1000 g ai/ha
  Blackgrass plant response rating: 30

## COC(=O)COc1c(C)nn(C)c(=O)c1-c1cccc2ccccc12 [Compound 182]
[1]; [16]
  Ragweed plant response rating: 30
[1]; [17]
  Plant response rating, Ragweed: 0
[2]; [16]
  Foxtail, Giant plant response rating: 0
[2]; [17]
  Plant response rating, Foxtail, Giant: 0
[3]; [16]
  Kochia plant response rating: 0
[3]; [17]
  Plant response rating, Kochia: 0
[4]; [16]
  Ryegrass, Italian plant response rating: 0
[4]; [17]
  Plant response rating, Ryegrass, Italian: 0
[5]; 1000 g ai/ha
  Corn plant response rating: 0
[6]; 1000 g ai/ha
  Wheat plant response rating: 0
[7]; [16]
  Barnyardgrass plant response rating: 0
[7]; [17]
  Plant response rating, Barnyardgrass: 0
[8]; [16]
  Pigweed plant response rating: 0
[8]; [17]
  Plant response rating, Pigweed: 0
[9]; 1000 g ai/ha
  Galium plant response rating: 50
[10]; 1000 g ai/ha
  Blackgrass plant response rating: 10

## Cc1ccc2ccccc2c1-c1c(OC(=O)C2CC2)c(C)nn(C)c1=O [Compound 76]
[1]; [11]
  Plant response rating, Ragweed: 0
[1]; [12]
  Ragweed plant response rating: 20
[1]; [13]
  Ragweed plant response rating: 0
[1]; [18]
  Plant response rating, Ragweed: 50
[2]; [11]
  Plant response rating, Foxtail, Giant: 0
[2]; [12]
  Foxtail, Giant plant response rating: 20
[2]; [13]
  Foxtail, Giant plant response rating: 0
[2]; [18]
  Plant response rating, Foxtail, Giant: 20
[3]; [11]
  Plant response rating, Kochia: 20
[3]; [12]
  Kochia plant response rating: 40
[3]; [13]
  Kochia plant response rating: 0
[3]; [18]
  Plant response rating, Kochia: 0
[4]; [11]
  Plant response rating, Ryegrass, Italian: 40
[4]; [12]
  Ryegrass, Italian plant response rating: 80
[4]; [13]
  Ryegrass, Italian plant response rating: 50
[4]; [18]
  Plant response rating, Ryegrass, Italian: 70
[5]; [15]
  Plant response rating, Corn: 0
[5]; 500 g ai/ha
  Corn plant response rating: 0
[6]; [15]
  Plant response rating, Wheat: 0
[6]; 500 g ai/ha
  Wheat plant response rating: 0
[7]; [11]
  Plant response rating, Barnyardgrass: 0
[7]; [12]
  Barnyardgrass plant response rating: 30
[7]; [13]
  Barnyardgrass plant response rating: 0
[7]; [14]
  Plant response rating, Barnyardgrass: 30
[8]; [11]
  Plant response rating, Pigweed: 10
[8]; [12]
  Pigweed plant response rating: 20
[8]; [13]
  Pigweed plant response rating: 20
[8]; [18]
  Plant response rating, Pigweed: 50
[9]; [15]
  Plant response rating, Galium: 70
[9]; 500 g ai/ha
  Galium plant response rating: 80
[10]; [15]
  Plant response rating, Blackgrass: 0
[10]; 500 g ai/ha
  Blackgrass plant response rating: 10

## COc1nn(C)c(=O)c(-c2c(C)sc3ccccc23)c1OC(C)=O [Compound 141]
[1]; [11]
  Plant response rating, Ragweed: 60
[1]; [19]
  Plant response rating, Ragweed: 40
[1]; [18]
  Plant response rating, Ragweed: 60
[2]; [11]
  Plant response rating, Foxtail, Giant: 20
[2]; [19]
  Plant response rating, Foxtail, Giant: 70
[2]; [13]
  Foxtail, Giant plant response rating: 30
[2]; [18]
  Plant response rating, Foxtail, Giant: 70
[3]; [11]
  Plant response rating, Kochia: 10
[3]; [19]
  Plant response rating, Kochia: 30
[3]; [13]
  Kochia plant response rating: 0
[3]; [18]
  Plant response rating, Kochia: 60
[4]; [11]
  Plant response rating, Ryegrass, Italian: 70
[4]; [19]
  Plant response rating, Ryegrass, Italian: 90
[4]; [18]
  Plant response rating, Ryegrass, Italian: 80
[5]; [15]
  Plant response rating, Corn: 0
[5]; [20]
  Plant response rating, Corn: 0
[6]; [15]
  Plant response rating, Wheat: 0
[6]; [20]
  Plant response rating, Wheat: 0
[7]; [11]
  Plant response rating, Barnyardgrass: 20
[7]; [19]
  Plant response rating, Barnyardgrass: 50
[7]; [13]
  Barnyardgrass plant response rating: 50
[7]; [18]
  Plant response rating, Barnyardgrass: 90
[8]; [11]
  Plant response rating, Pigweed: 0
[8]; [19]
  Plant response rating, Pigweed: 30
[8]; [13]
  Pigweed plant response rating: 40
[8]; [18]
  Plant response rating, Pigweed: 60
[9]; [15]
  Plant response rating, Galium: 70
[9]; [20]
  Plant response rating, Galium: 90
[10]; [15]
  Plant response rating, Blackgrass: 0
[10]; [20]
  Plant response rating, Blackgrass: 50
